Data on one compound can be found in US10022376B2 (Pfizer Inc., priority 2014, dated 2018).

The target of one test is JAK1 (Homo sapiens (Human), UniProt P23458). Kind of test: JAK Caliper Enzyme Assay at 1 mM ATP (JAK1). Type of test: biochemical. The conditions noted are these: Caliper assay at 1 mM ATP.
In the next test the target is JAK2 (Homo sapiens (Human), UniProt O60674). Nature of the test: JAK Caliper Enzyme Assay at 1 mM ATP (JAK2). Type of test: biochemical. The conditions noted are these: Caliper assay at 1 mM ATP.
Sequence of JAK2 (O60674 whole entry): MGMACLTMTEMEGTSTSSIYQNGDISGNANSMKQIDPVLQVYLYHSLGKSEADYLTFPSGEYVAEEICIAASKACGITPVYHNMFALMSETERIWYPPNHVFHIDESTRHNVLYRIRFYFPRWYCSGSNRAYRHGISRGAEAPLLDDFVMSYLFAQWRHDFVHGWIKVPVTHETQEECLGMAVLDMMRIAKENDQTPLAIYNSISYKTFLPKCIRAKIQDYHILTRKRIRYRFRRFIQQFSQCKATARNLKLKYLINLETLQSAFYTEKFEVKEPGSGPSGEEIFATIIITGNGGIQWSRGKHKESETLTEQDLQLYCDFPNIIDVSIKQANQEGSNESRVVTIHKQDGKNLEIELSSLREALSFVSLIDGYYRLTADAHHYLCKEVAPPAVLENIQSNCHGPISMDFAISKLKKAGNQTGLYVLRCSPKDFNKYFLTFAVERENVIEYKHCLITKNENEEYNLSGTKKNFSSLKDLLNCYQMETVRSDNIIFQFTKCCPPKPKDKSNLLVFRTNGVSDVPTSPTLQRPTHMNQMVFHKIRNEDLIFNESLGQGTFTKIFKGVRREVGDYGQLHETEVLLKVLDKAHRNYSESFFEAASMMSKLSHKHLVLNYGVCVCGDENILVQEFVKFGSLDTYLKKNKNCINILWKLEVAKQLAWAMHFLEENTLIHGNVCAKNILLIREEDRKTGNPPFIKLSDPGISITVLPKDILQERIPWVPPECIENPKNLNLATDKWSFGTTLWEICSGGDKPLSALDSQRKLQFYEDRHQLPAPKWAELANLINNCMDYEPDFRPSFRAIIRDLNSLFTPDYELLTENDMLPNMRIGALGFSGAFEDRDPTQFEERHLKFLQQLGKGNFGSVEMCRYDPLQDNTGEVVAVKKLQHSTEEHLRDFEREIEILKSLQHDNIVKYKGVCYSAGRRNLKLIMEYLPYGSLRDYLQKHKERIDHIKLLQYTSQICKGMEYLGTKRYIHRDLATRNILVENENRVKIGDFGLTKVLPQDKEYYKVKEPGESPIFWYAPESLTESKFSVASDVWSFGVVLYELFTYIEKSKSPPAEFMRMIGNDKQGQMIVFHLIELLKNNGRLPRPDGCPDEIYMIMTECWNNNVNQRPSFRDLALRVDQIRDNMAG
The target in another test is JAK3 (Homo sapiens (Human), UniProt P52333). Nature of the test: JAK Caliper Enzyme Assay at 1 mM ATP (JAK3). Type of test: biochemical. The settings on record: Caliper assay at 1 mM ATP.
Sequence of JAK3 (P52333 whole entry): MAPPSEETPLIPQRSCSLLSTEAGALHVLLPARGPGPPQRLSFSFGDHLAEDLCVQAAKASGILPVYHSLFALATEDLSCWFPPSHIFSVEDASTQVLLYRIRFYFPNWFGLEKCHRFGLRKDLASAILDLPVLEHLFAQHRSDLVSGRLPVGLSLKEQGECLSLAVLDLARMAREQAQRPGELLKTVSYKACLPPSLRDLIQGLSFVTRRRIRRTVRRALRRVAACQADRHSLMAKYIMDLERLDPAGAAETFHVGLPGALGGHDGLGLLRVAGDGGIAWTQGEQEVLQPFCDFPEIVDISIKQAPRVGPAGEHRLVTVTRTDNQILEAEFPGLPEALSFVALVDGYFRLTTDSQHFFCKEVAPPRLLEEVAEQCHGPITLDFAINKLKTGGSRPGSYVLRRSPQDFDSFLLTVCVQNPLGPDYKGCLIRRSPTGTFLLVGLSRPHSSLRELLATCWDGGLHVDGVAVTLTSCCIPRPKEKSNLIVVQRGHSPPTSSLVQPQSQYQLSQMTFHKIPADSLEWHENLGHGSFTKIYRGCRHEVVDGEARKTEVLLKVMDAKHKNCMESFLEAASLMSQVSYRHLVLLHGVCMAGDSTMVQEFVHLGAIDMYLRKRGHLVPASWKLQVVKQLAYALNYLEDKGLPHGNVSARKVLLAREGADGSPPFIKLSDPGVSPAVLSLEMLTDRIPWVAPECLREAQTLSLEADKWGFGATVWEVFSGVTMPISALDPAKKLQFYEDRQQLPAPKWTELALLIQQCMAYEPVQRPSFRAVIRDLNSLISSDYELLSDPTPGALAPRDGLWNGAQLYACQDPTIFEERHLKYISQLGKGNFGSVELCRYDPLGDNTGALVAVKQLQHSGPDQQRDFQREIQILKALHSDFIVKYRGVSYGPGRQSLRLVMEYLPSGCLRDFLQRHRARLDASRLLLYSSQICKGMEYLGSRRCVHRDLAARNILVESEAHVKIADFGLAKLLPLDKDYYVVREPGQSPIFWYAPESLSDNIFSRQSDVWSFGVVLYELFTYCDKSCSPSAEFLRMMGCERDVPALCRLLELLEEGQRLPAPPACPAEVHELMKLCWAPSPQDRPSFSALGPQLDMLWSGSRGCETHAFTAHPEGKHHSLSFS
The next test concerns the target TYK2 (Homo sapiens (Human), UniProt P29597). Kind of test: JAK Caliper Enzyme Assay at 1 mM ATP (TYK2). Type of test: biochemical. The settings on record: Caliper assay at 1 mM ATP.
In test [1] the test system is rhIFNγ stimulated STAT-3 phosphorylation in the A549 human epithelial cell line. Nature of the test: A549 Cell Assay: Inhibition of pSTAT3. Type of test: cell-based. The conditions noted are these: Homo sapiens; A549 cells. In outline: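 A549 cells cultured 18 h were preincubated 1 h at 37° C with compound (0.3 nM to 10 μM, 0.1% DMSO) in DMEM with 0.2% BSA, then stimulated with 20 ng/mL rhIFNγ for 30 min. pSTAT3 Tyr705 in the lysates was measured by MSD immunoassay and expressed as percent inhibition.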

In test [2] the test system is rhIL-2 stimulated STAT5 phosphorylation in isolated human T cells. Kind of test: Human T Cell Assay: Inhibition of pSTAT5. The class given is cell-based. As to the method: Human T Cell Assay: Inhibition of pSTAT5
An assay measuring the efficacy of JAK inhibitors on the functional response of recombinant human interleukin-2 (rhIL-2) stimulated STAT5 phosphorylation in isolated human T cells.
Human whole blood from individual donors was collected from the phlebotomy unit on-site. Peripheral venous blood (30-60 mL) from healthy volunteers of either sex was used as the source of T cells. T cell isolation from venous whole blood is routinely performed in a class II microbiological safety cabinet. Each sample was collected into between 3 and 6 10 mL Sodium Heparin Vacutainer tubes (BD #367874). The blood was poured into sterile 50 mL conicals (Corning #430828) and incubated with the T cell Rosette Sep Cocktail (Stemcell Technologies #15061) at 50 μL/mL antibody/blood ratio for 20 min. with shaking at room temperature. The blood/antibody mixture was then diluted 1:2 with PBS (Pfizer media prep)/2% FBS (Sigma #F4135) and 30 mL of the mixture was layered onto 15 mL Ficoll-Hypaque (GE Healthcare #17-1440-03) in 50 mL conical tubes. The tubes were then centrifuged at 1200×g for 20 min. at room temperature with no brake. Following centrifugation the T cells formed a buffy coat between the Ficoll-Hypaque and plasma layers. The plasma above the buffy coats was removed to within 5 mm of the buffy coat using a sterile Pasteur pipette. The buffy coats were then collected into fresh sterile 50 mL conical tubes containing 25 mL PBS/2% FBS (2 buffy coats per 50 mL conical). PBS/2% FBS was added to the buffy coat cells such that the final volume in the tube was 50 mL. The tubes were then centrifuged at 200×g for 15 min. at room temperature. The supernatant was discarded and the pellet re-suspended in 10-20 mL of DMEM (Pfizer media prep) Assay media/0.2% BSA (Miltenyi #130-091-376). A differential cell count was performed using a haemacytometer and cells were diluted to 1.1×10^6 T cells/ml in DMEM/0.2% BSA media. Compounds (10 mM-0.3 μM) were diluted with Hanks Balanced Salt Solution (HBSS) (Sigma #H6648) at 1:100 dilution. Immediately following cell isolation and compound dilution, 90 μl/well of T cells (˜1×10^6/ml) in assay medium (DMEM+0.2% BSA) was added to the VWR Deep well V bottom plate (#3906-520-300). 10 μl/well of compound (final concentration range of 10 μM-0.3 nM with 0.1% DMSO) or 0.1% DMSO in HBSS as controls was added to the appropriate wells. Plates were incubated for 1 hour at 37° C., 5% CO2 incubator. 10 μl of 3.3 μg/mL rhIL-2 (R&D Systems #202-IL) was added to the cells (300 ng/ml final assay concentration). Wells containing T cells, medium with 0.1% DMSO and no rhIL-2 were used as background controls. Plates were incubated for 15 min at 37° C. After rhIL-2 stimulation, 800 μL of cold PBS/0.1% BSA was added and the plates were centrifuged at 1400 rpm for 5 min at 4° C. Supernatant was aspirated and 100 μL of ice-cold MSD lysis buffer containing protease and phosphatase inhibitors from Phospho-STAT5a/b Tyr694 assay kit (Meso-Scale Discovery #K150IGD) was added to the cell pellet. Plates were shaken for 30 min. at 4° C. and then frozen overnight. The following day, cell lysates were assayed using the MSD ELISA kit protocol for detection of pSTAT5.
Data were collected and transformed into percent inhibition and calculated using the following formula: […]

Sequence of TYK2 (P29597 whole entry): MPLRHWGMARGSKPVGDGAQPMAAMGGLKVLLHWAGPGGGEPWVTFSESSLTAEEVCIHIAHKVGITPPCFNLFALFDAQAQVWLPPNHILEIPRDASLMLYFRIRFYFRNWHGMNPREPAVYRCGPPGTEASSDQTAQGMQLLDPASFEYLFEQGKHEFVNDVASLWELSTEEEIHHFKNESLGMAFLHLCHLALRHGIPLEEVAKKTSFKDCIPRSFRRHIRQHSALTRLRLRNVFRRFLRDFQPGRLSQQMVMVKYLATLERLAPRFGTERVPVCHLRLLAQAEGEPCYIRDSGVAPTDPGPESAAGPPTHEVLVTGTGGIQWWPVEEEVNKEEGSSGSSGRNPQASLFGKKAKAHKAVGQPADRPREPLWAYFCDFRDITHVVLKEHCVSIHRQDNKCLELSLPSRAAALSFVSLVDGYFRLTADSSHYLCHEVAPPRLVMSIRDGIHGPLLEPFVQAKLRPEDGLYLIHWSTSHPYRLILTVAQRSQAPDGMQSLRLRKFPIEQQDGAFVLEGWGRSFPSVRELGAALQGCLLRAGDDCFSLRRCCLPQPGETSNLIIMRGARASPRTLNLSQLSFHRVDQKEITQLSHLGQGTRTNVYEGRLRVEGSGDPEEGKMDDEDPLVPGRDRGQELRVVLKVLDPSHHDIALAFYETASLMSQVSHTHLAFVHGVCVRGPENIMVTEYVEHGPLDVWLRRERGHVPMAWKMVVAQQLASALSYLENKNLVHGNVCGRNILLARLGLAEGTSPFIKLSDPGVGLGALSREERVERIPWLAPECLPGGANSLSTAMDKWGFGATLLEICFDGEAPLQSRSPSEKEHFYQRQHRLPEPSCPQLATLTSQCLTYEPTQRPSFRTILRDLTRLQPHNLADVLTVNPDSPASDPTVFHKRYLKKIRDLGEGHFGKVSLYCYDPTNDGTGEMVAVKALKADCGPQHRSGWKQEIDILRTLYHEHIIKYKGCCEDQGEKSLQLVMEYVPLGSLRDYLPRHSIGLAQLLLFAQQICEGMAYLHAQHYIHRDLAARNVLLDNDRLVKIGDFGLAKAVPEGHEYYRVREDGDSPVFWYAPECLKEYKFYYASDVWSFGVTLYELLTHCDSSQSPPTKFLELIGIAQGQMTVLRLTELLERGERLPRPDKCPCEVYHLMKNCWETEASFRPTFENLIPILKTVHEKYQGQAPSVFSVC
Sequence of JAK1 (P23458 whole entry): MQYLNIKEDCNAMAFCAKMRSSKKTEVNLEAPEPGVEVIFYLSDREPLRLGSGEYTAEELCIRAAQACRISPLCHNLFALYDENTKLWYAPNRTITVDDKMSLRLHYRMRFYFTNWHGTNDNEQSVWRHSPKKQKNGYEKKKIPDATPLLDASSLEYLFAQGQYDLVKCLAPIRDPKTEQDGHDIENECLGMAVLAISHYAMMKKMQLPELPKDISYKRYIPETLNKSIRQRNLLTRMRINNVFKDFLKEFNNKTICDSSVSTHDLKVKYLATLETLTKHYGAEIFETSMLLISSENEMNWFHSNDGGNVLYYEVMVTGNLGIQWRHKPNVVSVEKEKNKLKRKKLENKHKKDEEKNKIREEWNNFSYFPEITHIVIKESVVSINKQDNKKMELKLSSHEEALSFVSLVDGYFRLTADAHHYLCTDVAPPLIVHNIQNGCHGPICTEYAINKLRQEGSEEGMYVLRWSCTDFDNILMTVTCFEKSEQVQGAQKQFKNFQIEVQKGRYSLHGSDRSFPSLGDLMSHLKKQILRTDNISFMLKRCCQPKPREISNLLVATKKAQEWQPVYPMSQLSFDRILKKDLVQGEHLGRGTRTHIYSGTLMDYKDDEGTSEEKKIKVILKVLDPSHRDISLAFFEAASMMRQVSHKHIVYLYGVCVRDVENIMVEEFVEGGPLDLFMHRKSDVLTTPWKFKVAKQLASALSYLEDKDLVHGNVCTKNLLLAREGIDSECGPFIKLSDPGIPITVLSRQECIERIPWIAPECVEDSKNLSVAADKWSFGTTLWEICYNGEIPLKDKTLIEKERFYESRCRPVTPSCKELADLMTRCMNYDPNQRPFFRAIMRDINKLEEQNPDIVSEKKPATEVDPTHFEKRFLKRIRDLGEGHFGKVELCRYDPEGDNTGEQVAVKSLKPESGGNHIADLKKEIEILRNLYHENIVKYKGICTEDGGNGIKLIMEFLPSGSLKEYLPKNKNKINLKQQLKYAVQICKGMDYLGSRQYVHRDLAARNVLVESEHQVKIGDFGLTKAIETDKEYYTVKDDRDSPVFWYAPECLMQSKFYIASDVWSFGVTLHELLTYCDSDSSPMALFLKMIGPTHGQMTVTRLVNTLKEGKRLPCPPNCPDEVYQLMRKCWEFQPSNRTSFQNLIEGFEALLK

On to `CNC(=O)c1n[nH]c2cc(-c3cc(F)c(O)cc3CC(F)(F)F)nc(NCc3ccccc3N(C)S(C)(=O)=O)c12` [Example 20, 6-[5-fluoro-4-hydroxy-2-(2,2,2-trifluoroethyl)phenyl]-N-methyl-4-({2-[methyl(methylsulfonyl)amino]benzyl}amino)-1H-pyrazolo[4,3-c]pyridine-3-carboxamide], for which the IC50 – broadly, the concentration that inhibits the measured activity by half – against JAK1 worked out at 3.6 nM; against JAK2, 16.6 nM; against JAK3, 95.3 nM; against TYK2, 20.9 nM; in test [1], 18.8 nM; in test [2], 31.9 nM.
